Patent US8802665B2, “Pyrrolidine derivatives” (Hoffman-La Roche Inc., priority 2012, dated 2014)

Target: human Cat S (Homo sapiens (Human), UniProt P25774)
Assay: Cathepsin enzyme inhibition assay (fluorogenic peptide substrate cleavage)
Assay type: biochemical
Conditions: human Cathepsin S 1 nM, substrate Z-Val-Val-Arg-AMC 20 μM, pH 6.5; read-out: Ic50 CatS: human
Protocol: Cathepsin Enzyme Inhibition Assay
Enzyme activity is measured by observing the increase in fluorescence intensity caused by cleavage of a peptide substrate containing a fluorophore whose emission is quenched in the intact peptide. • Assay buffer: 100 mM potassium phosphate pH 6.5, EDTA-Na 5 mM, Triton X-100 0.001%, DTT 5 mM. • Enzymes (all at 1 nM): human and mouse Cathepsin S, Cat K, Cat B, Cat L. • Substrate (20 μM): Z-Val-Val-Arg-AMC, except for Cat K which uses Z-Leu-Arg-AMC (both from Bachem). • Z=Benzyloxycarbonyl. • AMC=7-Amino-4-Methyl-Coumarin. • DTT=dithiothreitol. • Final volume: 100 μL. • Excitation 360 nm, Emission 465 nm.
Enzyme is added to the substance dilutions in 96-well microtitre plates and the reaction is started with substrate. Fluorescence emission is measured over 20 minutes, during which time a linear increase is observed in the absence of inhibitor. IC50 are calculated by standard methods.
Inhibition of human Cat S, mouse Cat S, human Cat K, human Cat B, human Cat L and mouse Cat L have been measured separately. The results obtained for human Cat S for representative compounds of the invention are expressed in the following table in μM.

Chain of human Cat S (P25774 115-331): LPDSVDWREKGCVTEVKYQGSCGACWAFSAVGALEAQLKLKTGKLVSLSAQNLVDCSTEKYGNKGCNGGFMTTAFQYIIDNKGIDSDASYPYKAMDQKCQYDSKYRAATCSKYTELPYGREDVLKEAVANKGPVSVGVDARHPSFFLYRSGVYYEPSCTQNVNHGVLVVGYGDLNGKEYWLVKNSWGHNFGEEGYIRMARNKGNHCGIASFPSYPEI

Point of comparison: `N#CC1(NC(=O)[C@@H]2C[C@@H](S(=O)(=O)c3ccccc3Cl)CN2C(=O)C2(N3CCCCCC3)CC2)CC1` [Example 40, (2S,4R)-1-(1-(Azepan-1-yl)cyclopropanecarbonyl)-4-(2-chlorophenylsulfonyl)-N-(1-cyanocyclopropyl)pyrrolidine-2-carboxamide], IC50 0.5 nM. Against it:
- CC1CCCN(C2(C(=O)N3C[C@H](S(=O)(=O)c4ccccc4Cl)C[C@H]3C(=O)NC3(C#N)CC3)CC2)C1 (stereo partly drawn) [Example 26, (2S,4R)-4-(2-Chlorophenylsulfonyl)-N-(1-cyanocyclopropyl)-1-(1-(3-methylpiperidin-1-yl)cyclopropanecarbonyl)pyrrolidine-2-carboxamide] — within 1.5-fold, 0.4 nM
- N#CC1(NC(=O)[C@@H]2C[C@@H](S(=O)(=O)c3ccccc3Cl)CN2C(=O)C2(N3CCSCC3)CC2)CC1 [Example 27, (2S,4R)-4-(2-Chlorophenylsulfonyl)-N-(1-cyanocyclopropyl)-1-(1-thiomorpholinocyclopropanecarbonyl)pyrrolidine-2-carboxamide] — 1.7-fold lower, 0.3 nM
- N#CC1(NC(=O)[C@@H]2C[C@@H](S(=O)(=O)c3ccccc3Cl)CN2C(=O)C2(N3CCCC3)CC2)CC1 [Example 28, (2S,4R)-4-(2-Chlorophenylsulfonyl)-N-(1-cyanocyclopropyl)-1-(1-(pyrrolidin-1-yl)cyclopropanecarbonyl)pyrrolidine-2-carboxamide] — 2.4-fold higher, 1.2 nM
- CC(C)(C)OC(=O)N1CCN(C2(C(=O)N3C[C@H](S(=O)(=O)c4ccccc4Cl)C[C@H]3C(=O)NC3(C#N)CC3)CC2)CC1 [Example 29, tert-Butyl 4-(1-((2S,4R)-4-(2-chlorophenylsulfonyl)-2-(1-cyanocyclopropylcarbamoyl)pyrrolidine-1-carbonyl)cyclopropyl)piperazine-1-carboxylate] — 4.6-fold higher, 2.3 nM
- N#CC1(NC(=O)[C@@H]2C[C@@H](S(=O)(=O)c3ccccc3Cl)CN2C(=O)C2(N3CCNCC3)CC2)CC1 [Example 30, (2S,4R)-4-(2-Chlorophenylsulfonyl)-N-(1-cyanocyclopropyl)-1-(1-(piperazin-1-yl)cyclopropanecarbonyl)pyrrolidine-2-carboxamide] — 8.4-fold higher, 4.2 nM
- CC(=O)N1CCN(C2(C(=O)N3C[C@H](S(=O)(=O)c4ccccc4Cl)C[C@H]3C(=O)NC3(C#N)CC3)CC2)CC1 [Example 31, (2S,4R)-1-(1-(4-Acetylpiperazin-1-yl)cyclopropanecarbonyl)-4-(2-chlorophenylsulfonyl)-N-(1-cyanocyclopropyl)pyrrolidine-2-carboxamide] — 4.4-fold higher, 2.2 nM
- CS(=O)(=O)N1CCN(C2(C(=O)N3C[C@H](S(=O)(=O)c4ccccc4Cl)C[C@H]3C(=O)NC3(C#N)CC3)CC2)CC1 [Example 32, (2S,4R)-4-(2-Chlorophenylsulfonyl)-N-(1-cyanocyclopropyl)-1-(1-(4-(methylsulfonyl)piperazin-1-yl)cyclopropanecarbonyl)pyrrolidine-2-carboxamide] — 5-fold higher, 2.5 nM
- COC(=O)N1CCN(C2(C(=O)N3C[C@H](S(=O)(=O)c4ccccc4Cl)C[C@H]3C(=O)NC3(C#N)CC3)CC2)CC1 [Example 33, Methyl 4-(1-((2S,4R)-4-(2-chlorophenylsulfonyl)-2-(1-cyanocyclopropylcarbamoyl)pyrrolidine-1-carbonyl)cyclopropyl)piperazine-1-carboxylate] — 5.2-fold higher, 2.6 nM
- N#CC1(NC(=O)[C@@H]2C[C@@H](S(=O)(=O)c3ccccc3Cl)CN2C(=O)C2(N3CCN(C=O)CC3)CC2)CC1 [Example 34, (2S,4R)-4-(2-Chlorophenylsulfonyl)-N-(1-cyanocyclopropyl)-1-(1-(4-formylpiperazin-1-yl)cyclopropanecarbonyl)pyrrolidine-2-carboxamide] — 2.8-fold higher, 1.4 nM
- N#CC1(NC(=O)[C@@H]2C[C@@H](S(=O)(=O)c3ccccc3Cl)CN2C(=O)C2(N3CCN(C(=O)C(F)(F)F)CC3)CC2)CC1 [Example 35, (2S,4R)-4-(2-Chlorophenylsulfonyl)-N-(1-cyanocyclopropyl)-1-(1-(4-(2,2,2-trifluoroacetyl)piperazin-1-yl)cyclopropanecarbonyl)pyrrolidine-2-carboxamide] — 7.4-fold higher, 3.7 nM
- CCN1CCN(C2(C(=O)N3C[C@H](S(=O)(=O)c4ccccc4Cl)C[C@H]3C(=O)NC3(C#N)CC3)CC2)CC1 [Example 36, (2S,4R)-4-(2-Chlorophenylsulfonyl)-N-(1-cyanocyclopropyl)-1-(1-(4-ethylpiperazin-1-yl)cyclopropanecarbonyl)pyrrolidine-2-carboxamide] — 12-fold higher, 6.2 nM
- N#CC1(NC(=O)[C@@H]2C[C@@H](S(=O)(=O)c3ccccc3Cl)CN2C(=O)C2(N3CCC(c4ccccc4)CC3)CC2)CC1 [Example 37, (2S,4R)-4-(2-chlorophenylsulfonyl)-N-(1-cyanocyclopropyl)-1-(1-(4-phenylpiperidin-1-yl)cyclopropanecarbonyl)pyrrolidine-2-carboxamide] — 2.4-fold higher, 1.2 nM
- CC1CCN(C2(C(=O)N3C[C@H](S(=O)(=O)c4ccccc4Cl)C[C@H]3C(=O)NC3(C#N)CC3)CC2)CC1 [Example 38, (2S,4R)-4-(2-chlorophenylsulfonyl)-N-(1-cyanocyclopropyl)-1-(1-(4-methylpiperidin-1-yl)cyclopropanecarbonyl)pyrrolidine-2-carboxamide] — the same, 0.5 nM
- N#CC1(NC(=O)[C@@H]2C[C@@H](S(=O)(=O)c3ccccc3Cl)CN2C(=O)C2(N3CCOCC3)CC2)CC1 [Example 39, (2S,4R)-4-(2-Chlorophenylsulfonyl)-N-(1-cyanocyclopropyl)-1-(1-morpholino-cyclopropanecarbonyl)pyrrolidine-2-carboxamide] — 1.6-fold higher, 0.8 nM
- CC1CCCCN1C1(C(=O)N2C[C@H](S(=O)(=O)c3ccccc3Cl)C[C@H]2C(=O)NC2(C#N)CC2)CC1 (stereo partly drawn) [Example 41, (2S,4R)-4-(2-Chlorophenylsulfonyl)-N-(1-cyanocyclopropyl)-1-(1-(2-methylpiperidin-1-yl)cyclopropanecarbonyl)pyrrolidine-2-carboxamide] — 1.8-fold higher, 0.9 nM
- N#CC1(NC(=O)[C@@H]2C[C@@H](S(=O)(=O)c3ccc(F)cc3Cl)CN2C(=O)C2(N3CCCCC3)CC2)CC1 [Example 42, (2S,4R)-4-(2-Chloro-4-fluorophenylsulfonyl)-N-(1-cyanocyclopropyl)-1-(1-(piperidin-1-yl)cyclopropanecarbonyl)pyrrolidine-2-carboxamide] — within 1.5-fold, 0.4 nM
- N#CC1(NC(=O)[C@@H]2C[C@@H](S(=O)(=O)c3cccc(Cl)c3)CN2C(=O)C2(N3CCCCC3)CC2)CC1 [Example 43, (2S,4R)-4-(3-Chlorophenylsulfonyl)-N-(1-cyanocyclopropyl)-1-(1-(piperidin-1-yl)cyclopropanecarbonyl)pyrrolidine-2-carboxamide] — 1.7-fold lower, 0.3 nM
- Cc1ccc(S(=O)(=O)[C@@H]2C[C@@H](C(=O)NC3(C#N)CC3)N(C(=O)C3(N4CCCCC4)CC3)C2)cc1 [Example 44, (2S,4R)-N-(1-Cyanocyclopropyl)-1-(1-(piperidin-1-yl)cyclopropanecarbonyl)-4-tosylpyrrolidine-2-carboxamide] — within 1.5-fold, 0.4 nM
- N#CC1(NC(=O)[C@@H]2C[C@@H](S(=O)(=O)c3ccccc3OC(F)(F)F)CN2C(=O)C2(N3CCCCC3)CC2)CC1 [Example 45, (2S,4R)-N-(1-Cyanocyclopropyl)-1-(1-(piperidin-1-yl)cyclopropanecarbonyl)-4-(2-(trifluoromethoxy)phenylsulfonyl)pyrrolidine-2-carboxamide] — 1.6-fold higher, 0.8 nM
- N#CC1(NC(=O)[C@@H]2C[C@@H](S(=O)(=O)c3cccc(C(F)(F)F)c3)CN2C(=O)C2(N3CCCCC3)CC2)CC1 [Example 46, (2S,4R)-N-(1-Cyanocyclopropyl)-1-(1-(piperidin-1-yl)cyclopropanecarbonyl)-4-(3-(trifluoromethyl)phenylsulfonyl)pyrrolidine-2-carboxamide] — within 1.5-fold, 0.4 nM
- N#CC1(NC(=O)[C@@H]2C[C@@H](S(=O)(=O)c3ccc(Cl)cc3)CN2C(=O)C2(N3CCCCC3)CC2)CC1 [Example 47, (2S,4R)-4-(4-Chlorophenylsulfonyl)-N-(1-cyanocyclopropyl)-1-(1-(piperidin-1-yl)cyclopropanecarbonyl)pyrrolidine-2-carboxamide] — 1.6-fold higher, 0.8 nM
- CC1(C)CCCN(C2(C(=O)N3C[C@H](S(=O)(=O)c4ccccc4Cl)C[C@H]3C(=O)NC3(C#N)CC3)CC2)C1 [Example 48, (2S,4R)-4-(2-Chlorophenylsulfonyl)-N-(1-cyanocyclopropyl)-1-(1-(3,3-dimethylpiperidin-1-yl)cyclopropanecarbonyl)pyrrolidine-2-carboxamide] — 4.6-fold higher, 2.3 nM
